The text below walks through data of patent US5840714A, “Inclusion complexes of racemic ibuproxam and of optically active ibuproxam with cyclodextrin derivatives, pharmaceutical preparations containing said inclusion complexes and methods for using same” (priority 1993, dated 1998).

Bounds are passed on as bounds.

For data set [1] the following is noted: cited from earlier work.
The conditions of data set [2]: irrespective of application route; cited from earlier work.
The conditions of data set [3]: in vivo; cited from earlier work.
For data set [4] the following is noted: cited from earlier work. The source holds these as a separate data set.
In another data set the test system is gastric mucous membrane. The data set can be described thus: Effect on gastric mucous membrane (irritation). The data set is classed as in vivo, rats. The protocol: […] After 4 hours its effect on irritation of gastric mucous membrane was measured in a way that the rate of bleeding in stomach and frequency of ulcers was determined.
Another data set relates to mice of Han-NMRI strain. Kind of data set: in vivo. The note with it: for comparative toxicity (in words): peroral, mice and rats. The protocol: (§1) In the test mice of Han-NMRI strain of both sexes, weight 19 to 24 g, and female rats of Han-WISTAR strain, weight 220 to 250 g, were used. The active substance was suspended in arachis oil and applied perorally. The volume of the applied suspension was 0.2 ml/20 g body weight in mice and 0.2 ml/200 g body weight in rats. Before the test the animals were fasted for 24 hours and after application, water and food were available ad libitum.

Another data set in a line: in vivo. Particulars: po. The protocol:
as §1

The subject of data set [5] is convulsions caused by phenylbenzoquinone. Kind of data set: Alleviation of pain (phenylbenzoquinone-induced convulsions). It is filed as in vivo, female mice. The note with it: Mus musculus, po, read-out: ED50 (50% pain protection); 95% confidence limit; peroral, 30 minutes before intraperitoneal phenylbenzoquinone.
Protocol: The effect of alleviating pain was tested with the number of convulsions caused by phenylbenzoquinone. Female mice, weight 15 to 22 g, were fasted before the test for 24 hours and after the application water and food were ad libitum. 30 minutes after peroral introduction of the suspension of active substance in 10% gum arabic solution, individual mice were intraperitoneally administered 0.25 ml of 0.02% phenylbenzoquinone solution. Only the vehicle was applied to a control group of animals. The number of phenylbenzoquinone-induced convulsions was pursued 5 to 20 minutes after the application thereof.
ED50 calculated dosis of the active substance in mg per 1 kg of the
animal, which dosis caused a 50% pain protection
The subject of data set [6] is oedema caused by carrageenin. The data set can be described thus: Antiinflammatory action in vivo (carrageenin oedema). Further details: species or system rats. The protocol:
Antiinflammatory action was measured in vivo by the inhibition of oedema caused by carrageenin.
Rats, which were fasted overnight, were given 100 mg/kg of the test substance 1 hour before the injection of 0.1 ml 1% carrageenin suspension.
(In the carrageenan paw model, swelling and tenderness develop within hours.)

The mark [7] stands for this setting: mouse, in vivo, 2000 mg/kg, % of deaths after 15 days, female mice, 2000 mg/kg peroral.
The mark [8] stands for this setting: mouse, in vivo, 2000 mg/kg, % of deaths after 15 days, male mice, 2000 mg/kg peroral.
[9] abbreviates: mouse, in vivo, 2000 mg/kg, % of deaths in 24 h, female mice, 2000 mg/kg peroral.
The mark [10] stands for this setting: mouse, in vivo, 2000 mg/kg, % of deaths in 24 h, male mice, 2000 mg/kg peroral.

As to `CC(C)Cc1ccc(C(C)C(=O)NO)cc1` (racemic) [racemic ibuproxam, 2-(4-isobutylphenyl)-propiohydroxamic acid], the “LD50 comparison at parenteral application” value in data set [1] is given as “the same for both substances”. The “metabolic conversion into ibuprofen (in words)” value in [2] is “rapid and almost complete metabolic conversion into ibuprofen”. In [3], the “analgetic, antipyretic and antiinflammatory action (in words)” value was “same analgetic, antipyretic and antiinflammatory action of both substances”; the “bioavailability in comparison with ibuprofen (in words)” value is “better bioavailability of ibuproxam in comparison with ibuprofen”; the “toxicity for the mucous membrane of the alimentary tract (in words)” value is recorded as “less toxic for the mucous membrane of the alimentary tract”.
As for `CC(C)Cc1ccc([C@@H](C)C(=O)O)cc1` [R-(-)-enantiomer], the “conversion to S-(+)-enantiomer in humans” value in data set [4] (humans) is on record as “only one third thereof, is converted to S-(+)-enantiomer”.
What is called mortality is the share of the test organisms that died. By LD50 is commonly meant the dose expected to kill half of the subjects tested. Low readings indicate greater toxicity, high ones lower toxicity. `CC(C)Cc1ccc([C@H](C)C(=O)O)cc1` [S-(+)-ibuprofen]: the “pharmacological activity (in words)” value in data set [4] (in vivo) is “pharmacologically active”. The “irritation of gastric mucous membrane” value in the data set on gastric mucous membrane (rat, in vivo, 30 mg/kg) is 12. Moreover, the “comparative toxicity (in words)” value in the data set with mice of Han-NMRI strain is listed as “acute toxicity of S-(+)-ibuprofen in all test animals is greater than acute toxicity of S-(+)-ibuproxam”. Besides, the mortality at 360 h in “in vivo” (mouse, in vivo, 1000 mg/kg, % of deaths after 15 days, female mice, 1000 mg/kg peroral) was determined as 10%; in “in vivo” (setting [7]) it was 10%; in “in vivo” (setting [8]) it was 30%; in “in vivo” (rat, 1000 mg/kg) it was 83.3%. Further, the mortality at 24 h in the data set “in vivo” (mouse, in vivo, 1000 mg/kg, % of deaths in 24 h, female mice, 1000 mg/kg peroral) came out at 10%; in “in vivo” (setting [9]), 10%; in “in vivo” (setting [10]), 0%; in “in vivo” (rat, 1000 mg/kg) it was 0%. In addition, the mortality at 48 h in “in vivo” (mouse, in vivo, 2000 mg/kg, animals died in 48 hours, male mice, 2000 mg/kg peroral) was 30%. The compound further gave an LD50 in “in vivo” (rat) of less than 1000 mg/kg. For the same compound, the mortality at 144 h in “in vivo” (rat, 1000 mg/kg) was found to be 83.3%.
One may read the ED50 as the dose at which the effect has come halfway, by size or by number of responders. Consider `CC(C)Cc1ccc([C@H](C)C(=O)NO)cc1` [S-(+)-ibuproxam, S-(+)-2-(4-isobutylphenyl)-propiohydroxamic acid], for which the “irritation of gastric mucous membrane” value in the data set with gastric mucous membrane (dose 30 mg/kg peroral, rate of bleeding and frequency of ulcers after 4 hours) was found to be 0. Moreover, the “irritating effect on gastric mucous membrane (in words)” value with gastric mucous membrane (rat, in vivo) is reported as “did not exhibit an irritating effect on gastric mucous membrane”. The ED50 in data set [5] is 73 mg/kg. The compound further returned an antiinflammatory action in [6] (100 mg/kg peroral, 1 hour before carrageenin, oedema inhibition 3 hours after carrageenin) of 37. Further, the “comparative antiinflammatory action (in words)” value in data set [6] (rat, in vivo) is reported as “greater antiinflammatory action than free racemic ibuproxam”. The “animals died (in words)” value with mice of Han-NMRI strain (female mice, 1000 mg/kg or 2000 mg/kg peroral, 15 days) is “no animal died”; with mice of Han-NMRI strain (male mice, 2000 mg/kg peroral), “no animal died”. Besides, in the data set with mice of Han-NMRI strain (mice of both sexes, 2000 mg/kg peroral), the “animals died in 15 days (in words)” value is “no animal died in 15 days”. Further, the “comparative toxicity (in words)” value in the data set with mice of Han-NMRI strain is reported as “less toxic than S-(+)-ibuprofen”. For the same compound, the mortality at 360 h in “in vivo” (setting [7]) amounted to 0%; in “in vivo” (setting [8]), 0%; in the data set “in vivo” (rat, 1000 mg/kg), 50%; in “in vivo” (rat, 2000 mg/kg) it was 50%. Also, the mortality at 24 h came out at 0% in the data set “in vivo” (setting [9]); 0% in the data set “in vivo” (setting [10]); 0% in “in vivo” (rat, 1000 mg/kg).
Regarding `CC(C)Cc1ccc(C(C)C(=O)O)cc1` (centres unmarked) [ibuprofen, 2-(4-isobutylphenyl)-propionic acid], the “LD50 comparison at parenteral application” value in data set [1] was “the same for both substances”. The “analgetic, antipyretic and antiinflammatory action (in words)” value in [3] is “same analgetic, antipyretic and antiinflammatory action of both substances”.
